In patent publication US20250091911A1, “NANOFILTRATION SYSTEM AND METHOD INCLUDING PRETREATMENT WITH GREEN SORPTION MEDIA” (University of Central Florida Research Foundation, Inc., priority 2023, published 2025):

How the values were obtained:
[1] = Fixed-bed column pretreatment of spiked C-23 canal water with CPS; details: for Removal via column C3: CPS column 3, 9 h; for Removal via column C1 / Removal via column C2 / average removal percentage by media: CPS; for Removal via column C1 / Removal via column C2: 9 h; for average removal percentage by media: triplicate columns
Procedure: The water samples were collected from the same site of the C-23 canal during both the dry and wet seasons. However, only wet season water samples were used in the experiment. The water samples were analyzed for both long-chain (PFOA and PFOS) and short-chain (Perfluorobutanoic acid [PFBA] and Perfluorobutanesulfonic acid [PFBS]) PFAS following the modified EPA 537.1 method (Shoemaker & Tettenhorst, 2020). Through this method, an aliquot of a 250 mL water sample containing analytes and internal standards is extracted via solid phase extraction. The extracted analytes and internal standards are then eluted with methanol and ammonium hydroxide in methanol solvent. Then the eluted samples are dried with nitrogen and reconstituted to 1 mL volume with a buffer solution. The samples are then injected into a C18 liquid chromatography column, and the PFAS compounds are separated by a gradient of pure methanol and 20 mM ammonium acetate. Finally, the eluted compounds are detected, and their concentrations are measured via tandem mass spectrometry. The method detection limits (MDLs) for PFBA, PFBS, PFOA, and PFOS were 0.5 ng·L^−1, 2 ng·L^−1, 0.5 ng·L^−1, and 1 ng·L^−1, respectively. The concentration of calcium ion (Ca^2+) was analyzed at Eurofins Flowers's Chemical Laboratories (Altamonte Springs, Florida) following EPA method 6010D using inductively coupled plasma optical emission spectroscopy (MDL=0.096 mg·L^−1). Total organic carbon (TOC) and dissolved organic carbon (DOC) were measured using a TOC analyzer following EPA method 415.3.
(§1) Water samples collected from the C-23 canal were first fortified with PFOS and PFOA and then used as influents to the pretreatment column containing one of the two green sorption media. Note the water samples were not fortified with PFBA and PFBS. The green sorption media effluent served as the feedwater for the nanofiltration unit of the proposed water treatment system. The nanofiltration membrane unit without any green sorption media-based pretreatment served as the “control.” The integration of a green sorption media (CPS or ZIPGEM) with crossflow nanofiltration is herein referred to as a water treatment system, denoted as CPS-nanofiltration or ZIPGEM-nanofiltration. The CPS and ZIPGEM column influents and effluents and nanofiltration permeates were analyzed for both long-chain (PFOS and PFOA) and short-chain (PFBS and PFBA) PFAS. FIG. 3 presents the green sorption media-nanofiltration hybrid treatment scheme.
C-23 canal water was stored in a walk-in refrigerator at […] after collection. For the pretreatment experiment, a total of 60 L of water was used as influents to the CPS and ZIPGEM columns. Although the raw water was spiked with 70 ng·L^−1 of PFOA and PFOS each, the short-chain PFAS (PFBA, PFBS) were at their indigenous concentrations. A peristaltic pump was used to deliver the water to the columns at a constant flowrate of 14 ml·min^−1. Three columns (triplicate) with 3 ft length and 4-inch diameter containing 2,600 ml of media were set up for each media, and all samples were analyzed in triplicate (FIG. 4). The fixed-bed column experiments were run for more than 48 h, and effluents were taken at different time intervals to be used as feedwaters for the nanofiltration treatment that followed. […] At least 5 L of column effluent were collected to be used as the nanofiltration feed, and the stated effluent at 9 h for CPS was collected from 0 h until 9 h, whereas effluent at 30 h for ZIPGEM was collected from 9 h until 30 h. The collected effluents from the column study were stored in a refrigerator until they were used for the nanofiltration experiment. FIG. 4 illustrates the experimental setup for the pretreatment CPS and ZIPGEM process.
The average removal efficiencies of each media pretreatment were calculated based on PFAS concentrations in the influents and effluents of triplicate columns, as disclosed in TABLE 5. […]

[2] = Overall removal by ZIPGEM-nanofiltration water treatment system
From the text: as §1
The average removal efficiencies of each media pretreatment were calculated based on PFAS concentrations in the influents and effluents of triplicate columns, as disclosed in TABLE 5. […] The overall efficiency of the hybrid treatment was calculated by comparing the average concentrations of PFAS in the influents of the green sorption media pretreatment columns and the nanofiltration permeates, as disclosed in TABLE 6.
where C0 is the concentration of PFAS in the column influent or nanofiltration feed in ng·L^−1, and where Ce is the concentration of PFAS in the column effluent or nanofiltration permeate in ng·L^−1. TABLE 7 summarizes the key findings of the green sorption media-based pretreatment and green sorption media-nanofiltration treatment, and these are explained in the subsequent subsection through an in-depth discussion and statistical analysis. It should be noted that PFOS concentration was slightly higher in the membrane permeates compared to the effluent of green sorption media pretreatment media, as disclosed in TABLE 5. The slight increase in PFOS concentration could be attributed to the filtration experimental setup that operated in a total recirculation mode. However, most of the differences were very close to the MDL for PFOS (1 ng·L^−1), which was already undetected in the green sorption media effluent

SMILES	Removal via column C3 [1]	Removal via column C1 [1]	Removal via column C2 [1]	average removal percentage by media [1]	O = overall removal by water treatment system ([2]; column 1)	O = overall removal by water treatment system ([2]; column 2)	O = overall removal by water treatment system ([2]; column 3)
O=C(O)C(F)(F)C(F)(F)C(F)(F)F [PFBA, Perfluorobutanoic acid]	29%	21%	24%	25	40%	36%	41%
O=S(=O)(O)C(F)(F)C(F)(F)C(F)(F)C(F)(F)F [PFBS, Perfluorobutanesulfonic acid]	25%	20%	27%	24	28%	35%	35%
O=C(O)C(F)(F)C(F)(F)C(F)(F)C(F)(F)C(F)(F)C(F)(F)C(F)(F)F [PFOA, Perfluorooctanoic acid]	88%	96%	85%	90	73%	82%	70%
O=S(=O)(O)C(F)(F)C(F)(F)C(F)(F)C(F)(F)C(F)(F)C(F)(F)C(F)(F)C(F)(F)F [PFOS, Perfluorooctanesulfonic acid]	100%	100%	100%	100	100%	100%	100%
